According to PMC5441580, “GPR40 partial agonist MK-2305 lower fasting glucose in the Goto Kakizaki rat via suppression of endogenous glucose production” (PLoS ONE, 2017):
Where “and” joins values, the source holds several entries; their conditions need not be identical. Identical values can stand only once.

What was measured:
[1] = test system: perfused db/db mouse livers; test: isolated perfused liver study, 13C NMR, [2-13C] pyruvate; conditions: data not shown
Description: To evaluate whether GPR40 partial agonist treatment produced a direct effect on hepatic glucose production, we performed isolated perfused liver studies with ^13C NMR spectroscopy in which GPR40 agonists were dosed directly to the liver ex vivo. Mouse livers were chosen instead of rat livers due to size restrictions of the perfused liver apparatus. […] A detailed description of the perfused liver technique can be found elsewhere. Briefly, db/db mice were anesthetized (Nembutal IP, 100 mg/kg), the portal vein was cannulated and tied off, and the liver was excised and perfused with a pre-oxygenated Krebs-bicarbonate buffered solution. The liver was then placed into a 20 mm NMR tube and the gluconeogenic substrate [2-^13C] pyruvate (10 mM) was added to the perfusate plus either MK-2305 (10 μM) or vehicle (0.1% DMSO). […] These NMR signals were then converted to absolute units (μmoles) by comparison to ^13C NMR spectra of standard solutions acquired under identical conditions. Additional correction factors were included for ^13C-glycogen and ^13C-glucose to account for the fact that position 2 in pyruvate can end up at position 1, 2, 5, or 6 in glucose/glycogen due to the fumarase and triose phosphate isomerase reactions. The slope of each signal versus time was then used to calculate the following fluxes: glucose production, glycogen synthesis, and lactate production.

[2] = biological target: T1, rat GPR40 (FFAR1) (Rattus norvegicus, UniProt Q8K3T4); test: IP1 functional assay, CHO cells stably expressing rat GPR40; type: cell-based; conditions: representative curve Fig 1B
T1 construct: expressed in transfected cells
T1 sequence (Q8K3T4 whole entry): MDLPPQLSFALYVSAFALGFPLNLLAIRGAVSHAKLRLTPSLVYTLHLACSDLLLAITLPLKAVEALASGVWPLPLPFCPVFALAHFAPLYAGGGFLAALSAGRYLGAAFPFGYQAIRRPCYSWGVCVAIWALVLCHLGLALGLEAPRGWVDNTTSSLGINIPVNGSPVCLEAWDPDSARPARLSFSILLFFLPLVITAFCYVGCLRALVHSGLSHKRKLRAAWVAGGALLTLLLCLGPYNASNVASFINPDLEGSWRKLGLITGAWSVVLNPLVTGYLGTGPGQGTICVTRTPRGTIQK
Description: CHO Jump-IN cells stably expressing rat GPR40 or HEK293 Jump-IN cells stably expressing rat GPR120 were cultured in DMEM media supplemented with 10% dialyzed FBS, non-essential amino acids, penicillin/streptomycin, 10 μg/ml Blasticidin S HCL and 200 or 100 μg/ml Hygromycin B, respectively (Life Technologies). Cell stocks were maintained and grown in a sub-confluent state using standard cell culture procedures. The day before the experiment, the cells were harvested with non-enzymatic cell dissociation buffer and re-suspended in DMEM supplemented as described above at 0.15 million cells per ml. […] The seeded plates were incubated overnight at 37°C in a humidified environment.
On the day of the experiment, the growth media was removed from the assay plate by centrifugation using a BlueCatBio BlueWasher, protocol #21 “Light Dry” and 10 μl of IP1 stimulation buffer (prepared according to the Cisbio IP-one Tb HTRF kit) is added to each well. Test compounds were dissolved and serially diluted in DMSO as 200X the final assay concentration and 50 nl of the compound dilution was acoustically added to each well of the assay plates. The plates were then incubated for 60 minutes at room temperature and 10 μl of detection buffer (prepared according to the IP-one Tb HTRF kit) is added to each well of the assay plate. The plates were then incubated for one additional hour at room temperature. […] For each assay, a standard curve plate in which IP1 is titrated is also included. […] The % activation is then plotted versus the concentration of test compound and the dose response curve fitted to a standard 4-paramater non-linear regression model using a custom in-house developed software package. Maximal % activation and EC50 are then determined for each test compound.

[3] = test system: GK rats; test: GK rat chronic efficacy, compound in feed for 20 days; type: in vivo; conditions: for Morning (fed) Blood Glucose: Rosi 10 mpk in feed
Description: At the start of the study, fed glucose was measured at 8 A.M., and animals were selected and sorted into treatment groups based on ambient glucose (n = 10/male GK group, n = 6/male WKY control group). […] Fed blood glucose, food intake, and body weights were determined on days 0, 1, 3, 7, and 14 of study at 8 A.M. On days 7 and 14, food was removed for 5 h and plasma glucose was measured. Percent inhibitions were calculated as the percent reduction of blood glucose from the average value for vehicle controls. On day 14, blood was collected from the tail vein (20 μl) after the morning glucose measurement and after 5 h fast from a subset of n = 3 rats per treatment group to determine the ambient and fasted exposure of the compounds in circulation. The blood was stored at 4°C in 0.1 M sodium monocitrate for subsequent analysis. Animals were then re-fed their respective diet treatments. On day 20 of treatment at 8 A.M., blood glucose was measured and then animals were euthanized via CO2 asphyxiation. Blood and liver tissue were sampled, processed, and stored at -80°C until analysis.
Plasma was analyzed for triglycerides, NEFA, and HbA1C using a P Modular Roche Clinical Chemistry analyzer. Liver triglycerides were extracted as described by Bligh and Dyer, and were measured using the Infinity triglyceride assay kit (Thermo Scientific, Rockford, IL). Plasma insulin levels were measured via EIA (Mesoscale Discovery ELISA Kit, Gaithersburg MD).

[4] = plasma exposure of the compounds on day 14 of the chronic study; type: in vivo, rat; conditions: 10 mg/kg in feed, GK rats
Description: At the start of the study, fed glucose was measured at 8 A.M., and animals were selected and sorted into treatment groups based on ambient glucose (n = 10/male GK group, n = 6/male WKY control group). Animals were then placed on diet (LabDiet # 5001) that contained, or was devoid of, compound at the daily doses indicated. Fed blood glucose, food intake, and body weights were determined on days 0, 1, 3, 7, and 14 of study at 8 A.M. On days 7 and 14, food was removed for 5 h and plasma glucose was measured. Percent inhibitions were calculated as the percent reduction of blood glucose from the average value for vehicle controls. On day 14, blood was collected from the tail vein (20 μl) after the morning glucose measurement and after 5 h fast from a subset of n = 3 rats per treatment group to determine the ambient and fasted exposure of the compounds in circulation. The blood was stored at 4°C in 0.1 M sodium monocitrate for subsequent analysis. Animals were then re-fed their respective diet treatments. On day 20 of treatment at 8 A.M., blood glucose was measured and then animals were euthanized via CO2 asphyxiation. Blood and liver tissue were sampled, processed, and stored at -80°C until analysis.

[5] = test system: GK rats; test: GK rat chronic efficacy, compound in feed for 20 days; type: in vivo; conditions: Day 7, ~6 hrs after food removal; 10mpk; chronic study; individual animals; 10 mg/kg
[6] = test system: diabetic humans; conditions: clinical trials; cited from earlier work
[7] = 10 mpk, following 20 days of treatment in the GK rat, individual animals

O=C(O)c1ncccc1S [3-MPA, reference compound]
effect on gluconeogenesis in the perfused liver [1]: marked acute reductions

COc1ccc(F)c(-c2ccc(COc3cccc([C@@H](CC(=O)O)C4CC4)c3)cc2C2=CCCC2(C)C)c1 [AM1638, reference compound]
Receptor Activation (%) ([2]; Concentration 1e-6 M): 370%
Receptor Activation (%) ([2]; Concentration 1.50E-11 M): -18%
Receptor Activation (%) ([2]; Concentration 1.56E-08 M): 132%
Receptor Activation (%) ([2]; Concentration 2.44E-10 M): 11%
Receptor Activation (%) ([2]; Concentration 2.50E-07 M): 361%
Receptor Activation (%) ([2]; Concentration 3.91E-09 M): 23%
Receptor Activation (%) ([2]; Concentration 4.00E-12 M): -6%
Receptor Activation (%) ([2]; Concentration 6.10E-11 M): 2%
Receptor Activation (%) ([2]; Concentration 6.25E-08 M): 275%
Receptor Activation (%) ([2]; Concentration 9.77E-10 M): 18%

CCOC(=O)[C@H](C)NP(=O)(N[C@@H](C)C(=O)OCC)c1ccc(-c2nc(N)sc2CC(C)C)o1 [CS917, reference compound]
effect on gluconeogenesis in the perfused liver [1]: marked acute reductions

CN(CCOc1ccc(CC2SC(=O)NC2=O)cc1)c1ccccn1 (stereo not shown) [Rosiglitazone, reference compound]
effect on body weight ([3]; 10 mg/kg in feed, GK rats): steady increase in body weight
effect on food intake ([3]; 10 mg/kg in feed, GK rats): significant and consistent increase in food consumption beginning on day 3
% HBA1c [3, 7]: 4.4% and 4.2% and 4.3% and 4.7%
Liver Triglycerides [3, 7]: 5.5 mg/g tissue and 8.7 mg/g tissue and 7.2 mg/g tissue and 5 mg/g tissue and 3.9 mg/g tissue and 6.1 mg/g tissue and 3.1 mg/g tissue
Fasted plasma insulin ([3]; Day 7, 10mpk, individual animals, 10 mg/kg): 64.4 pg/mL and 7.9 pg/mL and 28.0 pg/mL and 0.0 pg/mL and 126.7 pg/mL and 13.3 pg/mL and 40.2 pg/mL and 147.0 pg/mL and 54.7 pg/mL
Fasted plasma insulin ([3]; Day 14, 10mpk, individual animals, 10 mg/kg): 82.7 pg/mL and 67.8 pg/mL and 78.9 pg/mL and 214.4 pg/mL and 804.3 pg/mL and 809.3 pg/mL and 0.0 pg/mL and 890.8 pg/mL and 292.0 pg/mL
Morning (fed) Blood Glucose ([3]; Day 0 (start of study), individual GK rats): 195 mg/dL and 181 mg/dL and 219 mg/dL and 203 mg/dL and 204 mg/dL and 243 mg/dL and 186 mg/dL and 233 mg/dL and 191 mg/dL and 282 mg/dL
Morning (fed) Blood Glucose ([3]; Day 1, individual GK rats): 211 mg/dL and 175 mg/dL and 218 mg/dL and 246 mg/dL and 213 mg/dL and 240 mg/dL and 207 mg/dL and 205 mg/dL and 198 mg/dL and 275 mg/dL
Morning (fed) Blood Glucose ([3]; Day 3, individual GK rats): 129 mg/dL and 177 mg/dL and 163 mg/dL and 175 mg/dL and 172 mg/dL and 174 mg/dL and 242 mg/dL
Morning (fed) Blood Glucose ([3]; Day 7, individual GK rats): 135 mg/dL and 125 mg/dL and 137 mg/dL and 118 mg/dL and 123 mg/dL
Morning (fed) Blood Glucose ([3]; Day 14, individual GK rats): 133 mg/dL and 134 mg/dL and 121 mg/dL and 132 mg/dL
Morning (fed) Blood Glucose ([3]; Day 20, individual GK rats): 126 mg/dL and 133 mg/dL and 128 mg/dL and 129 mg/dL and 127 mg/dL and 123 mg/dL
NEFA (mEq/L) ([3]; Rosi @ 10, 20 days of treatment, individual GK rats): 0.32 mEq/L and 0.33 mEq/L and 0.35 mEq/L and 0.75 mEq/L and 0.49 mEq/L and 0.54 mEq/L and 0.48 mEq/L and 0.39 mEq/L and 0.65 mEq/L
decrease in fed glucose vs. vehicle ([3]; day 3, 10 mg/kg in feed, GK rats, p < 0.05): 22%
reduction in fasting blood glucose vs. vehicle ([3]; day 7, 5 hr fast, 10 mg/kg in feed, GK rats): 16%
reduction in fasting blood glucose vs. vehicle ([3]; day 14, 5 hr fast, 10 mg/kg in feed, GK rats): 19%
plasma NEFA ([3]; day 20, 10 mg/kg in feed, GK rats, mean ± SEM, vehicle 0.37 ± 0.03, not significant): 0.48 ± 0.05 mEq/L
effect on circulating HbA1C levels ([3]; day 20, GK rats, all treatment groups): significantly reduced
effect on liver triglyceride levels ([3]; day 20, GK rats, vs. vehicle controls): significant decrease
effect on fasted plasma insulin ([3]; days 7 and 14, 5 hr fast, GK rats): no significant effects
Fasted blood glucose ([3]; second block of the table (day 14 per title), 10mpk, individual animals, 10 mg/kg): 124 mg/dl and 131 mg/dl (2×) and 114 mg/dl and 133 mg/dl and 134 mg/dl
plasma exposure ([4]; day 14, fasted time point): ~0.7 µM
plasma exposure ([4]; day 14, fed time point): ~ 3 μM
Fasted blood glucose [5]: 109 mg/dL and 132 mg/dL and 121 mg/dL and 119 mg/dL and 134 mg/dL and 110 mg/dL and 115 mg/dL and 116 mg/dL

Cc1cc(OCCCS(C)(=O)=O)cc(C)c1-c1cccc(COc2ccc3c(c2)OC[C@H]3CC(=O)O)c1 [TAK-875, Fasiglifam]
effect on oral glucose tolerance, fasted plasma glucose, and hemoglobin HbA1C [6]: significant reductions
